In PubChem BioAssay (NCI):
“And” between values parts separate entries of the source, which are not always exact repeats. Equal values may be shown once.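 Five compound concentrations were applied to cells in 96-well plates for 48 hours; endpoints were derived by simple linear interpolation of the resulting dose-response curve. GI50 is the concentration that inhibits growth by half. At the TGI there is no net growth.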

Tests used:
Test in all cases: DTP human tumour cell line panel, 48 h
RPMI-8226 leukemia = system: RPMI-8226 leukemia
SF-268 CNS = system: SF-268 CNS
ACHN renal = system: ACHN renal
U251 CNS = system: U251 CNS
A549 NSCLC = system: A549 NSCLC
786-0 renal = system: 786-0 renal
M14 melanoma = system: M14 melanoma
COLO 205 colon = system: COLO 205 colon
SF-539 CNS = system: SF-539 CNS
HOP-92 NSCLC = system: HOP-92 NSCLC

SMILES: O=Cc1c[nH]c2ccc(-c3csc4ccccc34)cc12
- GI50 (RPMI-8226 leukemia): 1.54 µM
- TGI (RPMI-8226 leukemia): 7.49 µM
- GI50 (SF-268 CNS): 4.42 µM
- TGI (SF-268 CNS): 54.3 µM
- GI50 (ACHN renal): 5.11 µM
- TGI (ACHN renal): > 100 µM
- GI50 (U251 CNS): 3.64 µM
- TGI (U251 CNS): 21 µM
- GI50 (A549 NSCLC): 4.29 µM
- TGI (A549 NSCLC): > 100 µM
- GI50 (786-0 renal): 4.26 µM
- TGI (786-0 renal): 41.9 µM
- GI50 (M14 melanoma): 3.19 µM
- TGI (M14 melanoma): > 100 µM
- GI50 (COLO 205 colon): 4.46 µM
- TGI (COLO 205 colon): > 100 µM
- GI50 (SF-539 CNS): 2.41 µM
- TGI (SF-539 CNS): 7.52 µM
- GI50 (HOP-92 NSCLC): 7.06 µM
- TGI (HOP-92 NSCLC): 84.7 µM

SMILES: C/C(=C\CCc1ccsc1)CC/C=C(\C)CCCN1CCN(CCO)CC1
- GI50 (RPMI-8226 leukemia): 1.92 µM
- TGI (RPMI-8226 leukemia): 4.57 µM
- GI50 (SF-268 CNS): 5.44 µM
- TGI (SF-268 CNS): 19.8 µM
- GI50 (ACHN renal): 4.67 µM
- TGI (ACHN renal): 17.4 µM
- GI50 (U251 CNS): 2.27 µM
- TGI (U251 CNS): 7.28 µM
- GI50 (A549 NSCLC): 3.05 µM
- TGI (A549 NSCLC): 13.3 µM
- GI50 (786-0 renal): 2.27 µM
- TGI (786-0 renal): 5.35 µM
- GI50 (M14 melanoma): 2.05 µM
- TGI (M14 melanoma): 4.2 µM
- GI50 (COLO 205 colon): 1.89 µM
- TGI (COLO 205 colon): 3.95 µM
- GI50 (SF-539 CNS): 3.41 µM
- TGI (SF-539 CNS): 13.9 µM
- GI50 (HOP-92 NSCLC): 1.73 µM
- TGI (HOP-92 NSCLC): 7.48 µM

SMILES: COc1ccc(C2c3cc4c(c(OC)c3CC3OCC(=O)C32)OCO4)cc1OC (stereo not drawn)
- GI50 (SF-268 CNS): < 0.01 µM
- TGI (SF-268 CNS): > 100 µM
- TGI (ACHN renal): 71.7 µM
- GI50 (U251 CNS): < 0.01 µM
- TGI (U251 CNS): > 100 µM
- GI50 (A549 NSCLC): < 0.01 µM
- TGI (A549 NSCLC): > 100 µM
- GI50 (786-0 renal): < 0.01 µM
- TGI (786-0 renal): > 100 µM
- GI50 (M14 melanoma): < 0.01 µM
- TGI (M14 melanoma): > 100 µM
- GI50 (COLO 205 colon): < 0.01 µM
- TGI (COLO 205 colon): 0.074 µM and 0.0135 µM
- TGI (HOP-92 NSCLC): > 100 µM

SMILES: COC(=O)[C@H]1CC(=O)C=C2CCCC21 (stereo partly drawn)
- TGI (RPMI-8226 leukemia): > 100 µM
- TGI (SF-268 CNS): > 100 µM
- TGI (U251 CNS): > 100 µM
- TGI (A549 NSCLC): > 100 µM
- TGI (786-0 renal): > 100 µM
- TGI (M14 melanoma): > 100 µM
- TGI (COLO 205 colon): > 100 µM
- TGI (SF-539 CNS): > 100 µM
- TGI (HOP-92 NSCLC): > 100 µM

SMILES: CCOP(=O)(CCN1CCN(CCCCCOc2cc3c(cc2OC)C(=O)N2CCC[C@H]2C=N3)CC1)OCC
- GI50 (SF-268 CNS): 3.53 µM
- TGI (SF-268 CNS): 49.6 µM
- GI50 (ACHN renal): 18.5 µM
- TGI (ACHN renal): 50.4 µM
- GI50 (A549 NSCLC): 8.55 µM
- TGI (A549 NSCLC): 34.8 µM
- GI50 (786-0 renal): 12.5 µM
- TGI (786-0 renal): > 100 µM
- GI50 (M14 melanoma): 8.01 µM
- TGI (M14 melanoma): 25.8 µM
- GI50 (COLO 205 colon): 3.39 µM
- TGI (COLO 205 colon): 12.9 µM
- GI50 (SF-539 CNS): 3.6 µM
- TGI (SF-539 CNS): 17.7 µM
- GI50 (HOP-92 NSCLC): 12.6 µM
- TGI (HOP-92 NSCLC): 94.9 µM

SMILES: CC1=C(C(=O)Nc2cccc(C(F)(F)F)c2)C(c2ccccc2F)C(C(=O)Nc2cccc(C(F)(F)F)c2)=C(C)N1
- TGI (RPMI-8226 leukemia): 10.1 µM
- TGI (ACHN renal): 19 µM
- TGI (U251 CNS): 27.1 µM
- TGI (A549 NSCLC): 19.7 µM
- TGI (786-0 renal): 19.4 µM
- TGI (M14 melanoma): 15.7 µM
- TGI (COLO 205 colon): 20.5 µM
- TGI (SF-539 CNS): 23.8 µM
- TGI (HOP-92 NSCLC): 9.11 µM

SMILES: O=C(O)/C(=C/c1ccccc1[N+](=O)[O-])c1cccs1
- TGI (RPMI-8226 leukemia): > 100 µM
- TGI (SF-268 CNS): > 100 µM
- TGI (ACHN renal): > 100 µM
- TGI (U251 CNS): > 100 µM
- TGI (A549 NSCLC): > 100 µM
- TGI (786-0 renal): > 100 µM
- TGI (M14 melanoma): > 100 µM
- TGI (COLO 205 colon): > 100 µM
- TGI (SF-539 CNS): > 100 µM

SMILES: Cc1ccc(C2NC(=S)N3C(c4ccc(C)cc4)NC(=S)N23)cc1 (stereo not drawn)
- GI50 (SF-268 CNS): 7.78 µM
- TGI (SF-268 CNS): 22.1 µM
- GI50 (ACHN renal): 10.1 µM
- TGI (ACHN renal): 21.7 µM
- GI50 (U251 CNS): 3.91 µM
- TGI (U251 CNS): 14.3 µM
- GI50 (A549 NSCLC): 5.82 µM
- TGI (A549 NSCLC): 20.1 µM
- GI50 (786-0 renal): 5.82 µM
- TGI (786-0 renal): 19.9 µM
- GI50 (M14 melanoma): 3.01 µM
- TGI (M14 melanoma): 11.2 µM
- GI50 (COLO 205 colon): 6.07 µM
- TGI (COLO 205 colon): 18.5 µM
- GI50 (SF-539 CNS): 4.12 µM
- TGI (SF-539 CNS): 13.7 µM
